Target: T1, AT1 Q257A receptor (Rattus norvegicus, UniProt P25095, Q257A)
T1 construct: expressed in transfected cells; host or cells: COS7
T1 sequence (P25095 1-359 Q257A): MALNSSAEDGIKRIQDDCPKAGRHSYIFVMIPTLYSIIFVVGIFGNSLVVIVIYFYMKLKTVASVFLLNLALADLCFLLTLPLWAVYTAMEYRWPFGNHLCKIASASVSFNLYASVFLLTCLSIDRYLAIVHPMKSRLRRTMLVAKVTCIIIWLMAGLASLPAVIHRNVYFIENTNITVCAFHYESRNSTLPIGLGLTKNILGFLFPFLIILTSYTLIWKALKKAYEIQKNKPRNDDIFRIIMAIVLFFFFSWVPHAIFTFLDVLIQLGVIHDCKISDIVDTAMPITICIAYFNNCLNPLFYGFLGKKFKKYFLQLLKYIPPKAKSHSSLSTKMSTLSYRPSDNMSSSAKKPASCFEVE
Experiment: IP production assay in COS7 cells expressing AT1-Q257A receptor
Type: cell-based
Conditions: 1 µM ligands or 0.1 µM Ang II, 30 min, n = 5, vs. (-)
Description: The synthetic rat AT1 receptor gene, which was cloned in the shuttle expression vector pMT-2, was used for expression and mutagenesis, as described previously. […] In the experiments, cells were grown without a cell-growth supplement. To express the AT1 receptor protein, 10 µg of purified plasmid DNA per 10^7 cells was used in the transfection. Wild-type and mutated AT1 receptors were transiently transfected into cells using Lipofectamine 2000 liposomal reagent (Roche Applied Science, Penzberg, Germany). Cells were plated and grown and were 70–90% confluent at the time of transfection. We incubated plasmid DNA (10 µg)–lipid (10 µL) complexes for 5 min at room temperature and added and incubated the complexes with cells for 24 h. We then analyzed the parameters in transfected cells. […] Transfected cells that had been cultured for 48–72 h were harvested. Cell membranes were prepared using the nitrogen Parr bomb disruption or freeze–thaw methods.
Ligand (such as agonist or antagonist)-induced IP production through the AT1 receptor in transfected COS7 cells transiently expressing the AT1 receptor was measured to evaluate cell signaling as a second messenger for controlling blood pressure, since the increases in the intracellular Ca^2+ concentration were the result of IP accumulation, which indicated vasoconstriction. As a surrogate model with higher levels of AT1 receptor expression, COS7 cells are suitable for IP measurement because it is easy to detect differences in IP production. Cells were labeled for 24 h with [^3H]-myoinositol at 37 °C in DMEM containing 10% FBS. Next, the cells were washed with buffer 3 times and incubated with a medium containing 10 mM LiCl for 20 min; 0.1 µM Ang II or 1 µM ligands were added and incubation was continued for another 30 min at 37 °C. After incubation, the medium was removed, and total soluble IP was extracted from the cells using the perchloric acid extraction method, as described previously. Cells were plated at a field density of 5 × 10^3 cells/cm^2 in 60 mm dishes and cultured in a fresh growth medium at 37 °C in a DMEM 5% CO2 incubator. […] The culture medium was changed 48 h after transfection and 1.5 mL of 1 μCi/mL of [^3H]-myoinositol was added to each 60-mm dish at 37 °C in DMEM containing 10% FBS. After labeling, the cells were washed with buffer 3 times and incubated with a medium containing 10 mM LiCl for 20 min. The indicated concentration of ligands was added and incubation was continued for an additional 30 min at 37 °C. After incubation, the medium was removed, and total soluble IP was extracted from the cells using the perchloric acid extraction method. Total IP production was expressed as the sum of radioactivity, as described previously.

Structure (SMILES)	Effect on IP production
CCCc1nc(C(C)(C)O)c(C(=O)O)n1Cc1ccc(-c2ccccc2-c2nnn[nH]2)cc1 [Olmesartan, olmesartan]	significant reduction in basal IP production levels
CCCc1nc(C(C)(C)O)c(C(N)=O)n1Cc1ccc(-c2ccccc2-c2nnn[nH]2)cc1 [R239470]	none of the compounds (R239470, R781253, and R794847) affected IP production
CCCc1nc(C(C)(C)O)c(C(=O)O)n1Cc1ccc(-c2cc(Cc3ccc(O)cc3)ccc2-c2nnn[nH]2)cc1 [R781253]	none of the compounds (R239470, R781253, and R794847) affected IP production
CCCc1nc(C(C)(C)O)c(C(N)=O)n1Cc1ccc(-c2cc(Cc3ccc(O)cc3)ccc2-c2nnn[nH]2)cc1 [R794847]	none of the compounds (R239470, R781253, and R794847) affected IP production

From article PMC10216478, “Development of a Non-Peptide Angiotensin II Type 1 Receptor Ligand by Structural Modification of Olmesartan as a Biased Agonist” (Biomedicines, 2023)
